Legend:
[1] = test system: rat trachea rings; test: Tracheal relaxation assay (carbachol precontracted rings); details: for Percentage of carbachol-induced contraction at 10 μM compound, Avg %: 1 μM carbachol; for IC50: Rattus norvegicus, read-out: IC50 Avg;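 as to all read-outs here: isometric tension of rat tracheal rings in Krebs buffer with 1 µM indomethacin, compounds added cumulatively at 30 min intervals, basal tension subtracted, fit to Hill equation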
Method: The effects of compounds to induce relaxation of pre-contracted rat trachealis were determined. […] Trachea were excised, cleaned of connective tissue and cut into cylindrical segments of 2-3 mm length. Two stainless steel wires were guided through the lumen of the tracheal ring. One wire was fixed in the tissue bath and the other was connected to a force transducer via surgical silk. […] Indomethacin (1 μM), a cyclooxygenase inhibitor, was added to the Krebs buffer and was present throughout the experiments. Contractile tensions were measured using an isometric force transducer (Grass Instruments) and signals were analyzed using specialized software (Chart v5.5, ADInstruments). The preparations were allowed to equilibrate at a resting tension of 0.3 to 0.5 gm prior to two challenges with 60 mM KCl to assess tissue viability. After washing, tissues were treated with 1 μM carbachol for 10 to 15 minutes to induce a contractile response. Test Compounds were added cumulatively to the bath every 30 minutes and reductions in tension were recorded. Basal tension was subtracted from all values and data were reported as a percentage of the maximal carbachol-induced contraction. Data were fit to the Hill equation using GraphPad Prism v5 software.

[2] = test system: A-10 rat thoracic aorta cells; test: PDGF-stimulated smooth muscle cell proliferation assay (BrdU); assay type: cell-based; details: 10 μM compound, 10 ng/mL PDGF, A-10 cells, percent of total challenge-stimulated proliferation
Method: Effects on cell proliferation were measured using a bromodeoxyuridine (BrdU) incorporation assay. […] Serum free media containing 0.1% BSA was added to the cells. 24 hours later the media was removed and replaced with warmed serum free media. […] Proliferation was then monitored using the BrdU Cell Proliferation Assay, HTS (Calbiochem cat. #HTS01). BrdU was allowed to incorporate into cells for 24 hours prior to the addition of fixative/denaturing solution and the fluorometric detection of incorporated BrdU using a BrdU antibody as per manufacturer's directions. Data are reported as a percent of the PDGF-stimulated BrdU incorporation.

[3] = Rat oral pharmacokinetics (plasma); assay type: in vivo; details: rat, oral, 20-30 μmol/kg, plasma, mean of n = 3
Method: Plasma (EDTA K2 anticoagulant) was collected from male, cannulated, CD Sprague Dawley rats to determine the pharmacokinetics of formulations containing compound inhibitors of Rho kinase. Each animal was dosed orally with a 4 ml/kg solution or suspension of each test compound in 10 mM acetate buffered saline, pH 4.5 at a final concentration range of 20-30 μmol/kg. Blood was collected at 0.25, 0.5, 1, 2, 4, 6, 8, and 24 hours. Plasma samples were assayed for the concentration of the test compound using an on-line, solid phase extraction LC/MS/MS analysis system.
Samples were analyzed on a QSTAR Elite, hybrid quadrupole time-of-flight mass spectrometer (Applied Biosystems, Framingham, Mass.) coupled with a Symbiosis Pharma integrated, on-line SPE-HPLC system (Spark Holland Inc., Plainsboro, N.J.). Analyst QS 2.0 software was used for instrument control, data acquisition and processing. […] Mobile Phase A consisted of 0.1% ammonium hydroxide in water and Mobile Phase B consisted of 0.1% formic acid in acetonitrile. Pharmacokinetic analyses were performed using WinNonlin software version 5.2 (Pharsight Corporation, Mountain View, Calif.).
As determined from the plasma concentration versus time curves, the time to peak and peak exposure are represented by the values Tmax and Cmax, respectively. The AUC values (nM*hr) shown were calculated as the areas under the plasma concentration versus time curves from time zero through the time of the last observable value and represent the total exposure of the compound over the course of the study. Half-life values or the amount of time required for the plasma levels of the compound to decline to half the initial value are represented as t1/2.

[4] = test system: rat pulmonary artery; test: Pulmonary arterial relaxation assay (norepinephrine precontracted rings)
Method: Pulmonary artery or aorta were excised, cleaned of connective tissue and cut into cylindrical segments of 2-3 mm length. The preparations were mounted in a tissue bath by tying two threads of surgical silk through the lumen of the vessel. One silk was used to anchor the tissue to a metal wire in the bath and the other silk was connected to a force transducer. […] Contractile tensions were measured using an isometric force transducer (Grass Instruments) and signals were analyzed using specialized software (Chart v5.5, ADInstruments). The preparations were allowed to equilibrate at a resting tension of 0.1 to 0.2 gm for pulmonary artery and 2.0 gm for aorta prior to two challenges with 80 mM KCl to assess tissue viability. After washing, tissues were treated with 100 nM norepinephrine for 5 to 10 minutes to induce a contractile response. For pulmonary artery, compounds were added cumulatively to the bath every 30 minutes and reductions in tension were recorded. Basal tension was subtracted from all values and data was reported as a percentage of the maximal norephinephrine-induced contraction. Data were fit to the Hill equation using GraphPad Prism v5 software. For aorta, a single dose of compound was added and reductions in tension were recorded.

[5] = test system: rat aorta; test: Aortal relaxation assay (norepinephrine precontracted rings); details: 100 μM compound, 100 nM norepinephrine; FIG. 4B
Method: This assay is a model for selecting compounds for treating diseases that involve constriction of arterial smooth muscle, such as atherosclerosis and systemic hypertension. The effects of compounds to induce relaxation of pre-contracted rat pulmonary artery and rat aorta were determined. […] Pulmonary artery or aorta were excised, cleaned of connective tissue and cut into cylindrical segments of 2-3 mm length. The preparations were mounted in a tissue bath by tying two threads of surgical silk through the lumen of the vessel. One silk was used to anchor the tissue to a metal wire in the bath and the other silk was connected to a force transducer. […] Contractile tensions were measured using an isometric force transducer (Grass Instruments) and signals were analyzed using specialized software (Chart v5.5, ADInstruments). The preparations were allowed to equilibrate at a resting tension of 0.1 to 0.2 gm for pulmonary artery and 2.0 gm for aorta prior to two challenges with 80 mM KCl to assess tissue viability. […] For pulmonary artery, compounds were added cumulatively to the bath every 30 minutes and reductions in tension were recorded. Basal tension was subtracted from all values and data was reported as a percentage of the maximal norephinephrine-induced contraction. […] For aorta, a single dose of compound was added and reductions in tension were recorded.

| Compound | Percentage of carbachol-induced contraction at 10 μM compound, Avg % [1] | IC50 [1] | Percent of PDGF Induced Proliferation at 10 μM Avg [2] | AUC (0-last) [3] | Cmax [3] | Tmax [3] | Vz_F [3] | t½ [3] | relaxant response in precontracted pulmonary artery ([4]; 100 nM norepinephrine precontracted, FIG. 4A) | IC50 ([4]; Rattus norvegicus, read-out: IC50 for compound-induced relaxation) | norepinephrine-induced contractile response (tension) of aortal ring [5] |
| --- | --- | --- | --- | --- | --- | --- | --- | --- | --- | --- | --- |
| CSc1ccc(CN2CC[C@@H](Nc3cccc4cnccc34)C2)cc1 [Compound 2.026, (R)-N-(1-(4-(methylthio)benzyl)pyrrolidin-3-yl)isoquinolin-5-amine] | 17.1% | 2860 nM | 52.0% | BLQ | BLQ | BLQ | BLQ | BLQ | – | – | – |
| OCCOc1cccc(CN2CC[C@@H](Nc3cccc4cnccc34)C2)c1 [Compound 2.039, (R)-2-(3-((3-(isoquinolin-5-ylamino)pyrrolidin-1-yl)methyl)phenoxy)ethanol] | 6.2% | 343 nM | – | – | – | – | – | – | fully relaxed | 151 nM | fully reversed |

Source: US20130172324A1, “METHOD FOR TREATING CARDIOVASCULAR DISEASES USING RHO KINASE INHIBITOR COMPOUNDS” (priority 2008, published 2013)
